Consider one substance from patent US20240287136A1, “PHARMACEUTICAL COMPOSITION AND THE USE THEREOF IN THE TREATMENT OF AUTOIMMUNE DISEASES” (Singapore Health Services Pte. Ltd., priority 2016, published 2024).

Ends that are not written are not given here.

Assay [1] relates to CD4+FoxP3+Tregs and CD4+CD45RO+memory T cells. As to the kind of experiment: Cluster analysis and manual gating of Treg and memory T cell compartments of trial patients. In kind it is in vivo, human. From the text: Cluster analysis of the immune profiles of healthy individuals and rheumatoid arthritis patients reveal profound perturbations in the various immune cell compartments (FIG. 8). Immune tolerization achieved with SEQ ID NO: 1 treatment reshapes the immunomes of rheumatoid patients (FIG. 8B). The underlying immunological mechanisms behind immune tolerization was investigated by utilising staining panels for surface and activation markers on T cells (FIG. 13).
Immune phenotypes enriched in this cell subset of SEQ ID NO: 1 responders were memory T cells displaying activation and tolerogenic characteristics (FIG. 11B).

Assay [2] has as its system latent TGFβ binding protein 4 (LTBP-4) gene. In words: Gene array analysis of PBMCs of trial patients. In kind it is in vivo, human. The following applies: SEQ ID NO: 1 responders (FIG. 14A).
The subject of assay [3] is Treg (CD4+CD25++CD127−) cells. As to the kind of experiment: PD-1 expression on Treg by FACS after incubation with SEQ ID NO. 1. In kind it is cell-based, human. The following applies: after incubation with 10 mg/ml of SEQ ID NO. 1. As to the method:
(§1) FIG. 5. PD-1 actively contributes to Treg function: a. Treg ability to suppress Teff proliferation was determined by CFSE dilution. A representative clinical responder is depicted. Treg cells were sorted by FACS according to the phenotype depicted in the table and incubated with Teff in the presence of 10 mg/ml of SEQ ID NO. 1. b. […] 1. c. […] 1. Line with white area under the curve depicts T0, grey area depicts Tend. T(x)=Probability binning. % PD-1+Treg is expressed as percentage of the total Treg population (insets in both panels). d. […] PD-1+Treg cells were stained by FACS after a 5-day incubation with Teff and APC in the presence or absence of anti-PD1 antibody. Details in methods. Line with white area under the curve depicts anti-PD1 treated, grey area depicts untreated. T(x)=Probability binning. e. pSTAT5 was examined in Treg via immunofluorescent microscopy. Cells, staining and slides were prepared according to procedures outlined in the methods. The average pSTAT5 expression per cell for anti-PD-1 treatment, as determined by the average integral density per unit area, was calculated using ImageJ (Rasband, W. S., ImageJ, http://rsb.info.nih.gov/ij/, 1997-2009). Untreated vs. anti-PD-1 treated: 38.79 vs. 33.07, standard deviation 4.27 vs. […], t-test p<0.0001. f. […] Teff were stained by FACS after a 5-day incubation in the presence or absence of anti-PD1 antibody. Details in methods. Line with white area under the curve depicts anti-PD1 treated, grey area depicts untreated. T(x)=Probability binning. g. Total Treg, PD-1+Treg and PD-1− Treg from clinical responders (n=S) at Tend were sorted and RNA expression of CTLA-4, FoxP3, IL-10 and TGF-β was measured by TaqMan. Data are expressed as 2(−dCT)×100 of GAPDH. […] 1 clinical responders (18.99+/−3.412 vs 2.693+/−1.434, n=S p=0.0130).
(In flow cytometry, cells or beads pass a laser one at a time.)

Assay [4] concerns regulatory T cell (Treg) (CD4+CD25++CD127−). As to the kind of experiment: Treg frequency in PBMC of trial patients by FACS. In kind it is in vivo, human. How it is done:
(§2) FIG. 3. Effector and regulatory T cell function differ according to clinical response: a. effector T cells (Teff) (CD4+CD127+) at beginning of the trial (TO) and end of the study (Tend) were compared for PD-1 expression in both SEQ ID NO. 1 clinical responders and placebo clinical non-responders by FACS. b. FACS-sorted Teffwere analyzed for IL-17 and for RORC. Teff were stained intracellularly with IL-17A, and analyzed by FACS. c. regulatory T cell (Treg) (CD4+CD25++CD127−) frequency (% of PBMC) was determined in SEQ ID NO. 1—treated clinical responders by FACS. […] Values are the mean and s.e.m. d. Treg functionality in SEQ ID NO. […] (placebo clinical non-responders vs SEQ ID NO. 1 clinical responders, —76.21+/−3.665 vs 8.443+/−4.677, n=2 vs 3, t-test p0.0010). Values are the mean and s.e.m.
It is not detected in clinical responders a change in frequency of CD4+/CD25++/CD127-Treg between beginning and end of the trial (FIG. 3c). A highly significant difference between treatment responders and placebo non-responders was found in the suppressive ability of Treg at the end of the trial (FIG. 3d). This difference indicates a restoration of Treg functionality in clinical responders to treatment with SEQ ID NO. 1 (FIG. 3d and Sa).
Successful treatment with SEQ ID NO: 1 therefore induced an immune deviation of Teff cells by reducing their ability to produce pro-inflammatory cytokines. […]

Assay [5] concerns effector T cells (Teff) (CD4+CD127+). In words: FACS of effector T cells of trial patients (PD-1, intracellular IL-17A, IL-23 receptor). In kind it is in vivo, human. How it is done: as §2
Therefore, a first hypothesis to test here is whether CD4+/CD127+T effector (Teff) cell anergy was induced by treatment with SEQ ID NO. 1. […] In addition, Teff were able to proliferate to conventional polyclonal stimuli (data not shown).
Further analysis of Teff in SEQ ID NO. […] Conversely, an increased expression in IL-17A expression was detected in placebo—treated clinical non-responders. […] 1 induced an immune deviation of Teff with a reduction in the ability to produce pro-inflammatory cytokines.
In FIG. 3b Y axis: % net change between Tend and T0 for both Teff producing IL-17A (first two columns, measured by FACS) and RORC expression (measured by TaqMan). […] Results were analyzed as a percentage of GAPDH. […] Values are the mean and s.e.m.

The subject of assay [6] is PD-1+Treg and PD-1− Treg. In words: TaqMan RNA expression in sorted total, PD-1+ and PD-1− Treg of clinical responders. The format is in vivo, human. To be noted: SEQ ID NO. 1 clinical responders at Tend. As to the method: as §1
To further characterize function of PD-1+Treg, mRNA was extracted from FACS-sorted CD4+/CD25++/CD127−total Treg, PD-1+Treg and PD-1-Treg and tested by qPCR for expression of various genes associated with Treg function.
A general note: Real-time PCR tracks product formation cycle by cycle.

Assay [7] deals with regulatory T cell (Treg) (CD4+CD25++CD127−). As to the kind of experiment: Treg functionality: suppression of Teff proliferation (CFSE dilution). In kind it is in vivo, human. The following applies: SEQ ID NO. 1 clinical responders at Tend, n=3; mean and s.e.m.; placebo clinical non-responders —76.21+/−3.665. As to the method: as §2, with “p0.0010). […]” for “p0.0010). Values are the mean and s.e.m.”
FIG. 5. […] Treg ability to suppress Teff proliferation was determined by CFSE dilution. […] T(x)=Probability binning. % PD-1+Treg is expressed as percentage of the total Treg population (insets in both panels). d. […] The average pSTAT5 expression per cell for anti-PD-1 treatment, as determined by the average integral density per unit area, was calculated using ImageJ (Rasband, W. S., ImageJ, http://rsb.info.nih.gov/ij/, 1997-2009). […] Total Treg, PD-1+Treg and PD-1− Treg from clinical responders (n=S) at Tend were sorted and RNA expression of CTLA-4, FoxP3, IL-10 and TGF-β was measured by TaqMan. Data are expressed as 2(−dCT)×100 of GAPDH. […]

Consider QKRAAYDQYGHAAFE-NH2 [SEQ ID NO. 1], for which the “percentage of CD4+FoxP3+Tregs expressing GITR, PD-1 and HLA-DR” value in assay [1] (SEQ ID NO: 1 responders versus placebo non-responders (FIG. 8E)) is listed as “higher percentage”. The “proportion of CD4+CD45RO+memory T cells activated and regulatory (CD69 and TGFβ expression)” value in assay [1] (SEQ ID NO: 1 responders versus placebo non-responders (FIG. 11C)) was “larger proportion”. Also, the “expression of latent TGFβ binding protein 4 (LTBP-4) gene in PBMCs” value in assay [2] is recorded as “marginal upregulation”. Besides, the “PD-1+ Treg as percentage of total Treg” value in assay [3] (clinical responder, T0) came out at 13.3%; in assay [3] (clinical responder, Tend) it was 41%; in assay [3] (representative clinical non-responder, T0) it was 15.5%; in assay [3] (representative clinical non-responder, Tend) it was 12.7%. The “change of frequency of Tregs between beginning and end of the trial” value in assay [4] (FIG. 9B) is “did not change”. Moreover, the “Treg frequency in PBMC” value in assay [4] (clinical responders, Tend, T0 7.773+/−1.432, n=4, mean and s.e.m.) was 7.610+/−1.519 % of PBMC. In assay [5] (SEQ ID NO. 1-treated clinical responders, not shown), the “IL-23 receptor expression in Teff” value is “decrease”. For the same substance, the “Intracellular IL-17A expression in Teff cells” value in assay [5] (clinical responders, Tend, T0 8.003+/−0.07839%, n=3, mean and s.e.m.) is 4.873+/−0.6933%. The “% of PD-1+ in the total Teff population” value in assay [5] (clinical responders, end of trial (Tend), T0 6.312+/−1.428, n=5, mean+/−s.e.m.) is listed as 4.930+/−1.433%. For the same substance, the “CTLA-4, FoxP3 and IL-10 expression between the different subsets of Treg” value in assay [6] was “did not differ”. Besides, the “TGF-β gene expression in PD-1+Treg” value in assay [6] is 18.99+/−3.412 2(−dCT)×100 of GAPDH. Moreover, the “TGF-β gene expression in PD-1− Treg” value in assay [6] is 2.693+/−1.434 2(−dCT)×100 of GAPDH. Moreover, the “Treg functionality, % suppression of Teff proliferation” value in assay [7] was 8.443+/−4.677 % suppression.
